In brackets after ≈: the same amount, converted by molar mass. Activity calls are given as the source filed them. No cut-off for these calls is given here.
Assays:
MDCK-MDR1 = experiment: Cytotoxicity against MDCKII-MDR1 cells assessed as reduction in cell viability at 1 to 10 uM measured after 3 hrs by Celltiter-Glo reagent based assay; assay type: toxicity, Canis lupus familiaris; details: dog, mdck-mdr1, 3 h, dose 1-10 µM
Streptococcus pneumoniae = experiment: Antibacterial activity against Streptococcus pneumoniae assessed as inhibition of bacterial growth incubated for 20 to 24 hrs by microbroth serial dilution method; assay type: functional; details: time 20-24 hrs, read-out: MIC100
Staphylococcus aureus [1] = experiment: Antibacterial activity against methicillin susceptible Staphylococcus aureus ATCC 29213 assessed as inhibition of bacterial growth incubated for 20 to 24 hrs by microbroth serial dilution method; assay type: functional; details: time 20-24 hrs, read-out: MIC100
Caco-2 = experiment: Cytotoxicity against human Caco-2 cells assessed as reduction in cell viability at 1 to 10 uM measured after 1 to 8 days by Celltiter-Glo reagent based assay; assay type: toxicity; details: caco-2, 10 µM, dose lower 1 µM, time lower 1 day, dose upper 10 µM, time upper 8 day
DU-145 = experiment: Cytotoxicity against human DU-145 cells assessed as reduction in cell viability at 1 to 10 uM measured after 3 hrs by Celltiter-Glo reagent based assay; assay type: toxicity; details: du-145, 3 h, dose 1-10 µM
Enterococcus faecalis = experiment: Antibacterial activity against Enterococcus faecalis assessed as inhibition of bacterial growth incubated for 20 to 24 hrs by microbroth serial dilution method; assay type: functional; details: time 20-24 hrs, read-out: MIC100
Staphylococcus aureus [2] = experiment: Antibacterial activity against methicillin resistant Staphylococcus aureus clinical isolate 52518 assessed as inhibition of bacterial growth incubated for 20 to 24 hrs by microbroth serial dilution method; assay type: functional; details: time 20-24 hrs, read-out: MIC100
Staphylococcus aureus [3] = experiment: Antibacterial activity against mupirocin resistant Staphylococcus aureus 4828 assessed as inhibition of bacterial growth incubated for 20 to 24 hrs by microbroth serial dilution method; assay type: functional; details: time 20-24 hrs, read-out: MIC100
Staphylococcus aureus [4] = experiment: Antibacterial activity against methicillin resistant Staphylococcus aureus clinical isolate 933010 assessed as inhibition of bacterial growth incubated for 20 to 24 hrs by microbroth serial dilution method; assay type: functional; details: time 20-24 hrs, read-out: MIC100
[5] = Metabolic stability in mouse liver assessed as intrinsic clearance at 1 uM measured up to 60 mins by LC-MS/MS analysis; assay type: ADME, tissue-based; details: read-out: CLH
Staphylococcus aureus [6] = experiment: Antibacterial activity against methicillin resistant Staphylococcus aureus clinical isolate 55508 assessed as inhibition of bacterial growth incubated for 20 to 24 hrs by microbroth serial dilution method; assay type: functional; details: time 20-24 hrs, read-out: MIC100
Staphylococcus aureus [7] = experiment: Antibacterial activity against methicillin susceptible Staphylococcus aureus ATCC 25923 assessed as inhibition of bacterial growth incubated for 20 to 24 hrs by microbroth serial dilution method; assay type: functional; details: time 20-24 hrs, read-out: MIC100
[8] = Metabolic stability in human liver microsomes assessed as half-life at 1 uM measured up to 30 mins by LC-MS/MS analysis; assay type: ADME, Microsome
Enterococcus faecium [9] = experiment: Antibacterial activity against vancomycin, ampicillin and ciprofloxacin resistant Enterococcus faecium clinical isolate 1 assessed as inhibition of bacterial growth incubated for 20 to 24 hrs by microbroth serial dilution method; assay type: functional; details: time 20-24 hrs, read-out: MIC100
[10] = Metabolic stability in human liver assessed as intrinsic clearance at 1 uM measured up to 30 mins by LC-MS/MS analysis; assay type: ADME, tissue-based; details: read-out: CLH
[11] = Metabolic stability in mouse liver microsomes assessed as half-life at 1 uM measured up to 60 mins by LC-MS/MS analysis; assay type: ADME, Microsome
Staphylococcus aureus [12] = experiment: Antibacterial activity against methicillin resistant Staphylococcus aureus USA300 FPR3757 assessed as inhibition of bacterial growth incubated for 20 to 24 hrs by microbroth serial dilution method; assay type: functional; details: time 20-24 hrs, read-out: MIC100
Enterococcus faecium [13] = experiment: Antibacterial activity against vancomycin, ampicillin and ciprofloxacin resistant Enterococcus faecium clinical isolate 5 assessed as inhibition of bacterial growth incubated for 20 to 24 hrs by microbroth serial dilution method; assay type: functional; details: time 20-24 hrs, read-out: MIC100
Staphylococcus aureus [14] = experiment: Antibacterial activity against Staphylococcus aureus ATCC 29213 infected in skin infection female BALB/cJRj mouse model assessed as reduction in bacterial load in wound at 2 % administered twice daily at 6 hrs interval as cream formulation and measured on day 4 (reference value: 5.3 x 10^3 CFU/ml); assay type: functional; details: route top, time 4 day
Staphylococcus aureus [15] = experiment: Antibacterial activity against Staphylococcus aureus ATCC 29213 infected in skin infection female BALB/cJRj mouse model assessed as reduction in bacterial load in wound at 2 % administered twice daily at 6 hrs interval as cream formulation and measured on day 5; assay type: functional; details: route top
Staphylococcus aureus [16] = experiment: Antibacterial activity against Staphylococcus aureus ATCC 29213 infected in skin infection female BALB/cJRj mouse model assessed as reduction in bacterial load in wound at 2 % administered twice daily at 6 hrs interval as cream formulation and measured on day 1; assay type: functional; details: route top, time 1 day
[17] = Toxicity in female BALB/cJRj mouse model of skin infection infected with Staphylococcus aureus ATCC 29213 assessed as skin toxicity at 2 % administered twice daily at 6 hrs interval as cream formulation and measured on day 4; details: in vivo, topical_or_ocular, 96 h, route top, time 4 day
[18] = Toxicity in female BALB/cJRj mouse model of skin infection infected with Staphylococcus aureus ATCC 29213 assessed as skin irritation at 2 % administered twice daily at 6 hrs interval as cream formulation and measured on day 4; details: in vivo, topical_or_ocular, 96 h, route top, time 4 day

SMILES | Activity (MDCK-MDR1) | MIC (Streptococcus pneumoniae) [µg/mL] | MIC (Staphylococcus aureus [1]) [µg/mL] | Activity (Caco-2) | Activity (DU-145) | MIC (Enterococcus faecalis) [µg/mL] | MIC (Staphylococcus aureus [2]) [µg/mL] | MIC (Staphylococcus aureus [3]) [µg/mL] | MIC (Staphylococcus aureus [4]) [µg/mL] | CLint scaled at 1 µM [5] [L/h/kg] | MIC (Staphylococcus aureus [6]) [µg/mL] | MIC (Staphylococcus aureus [7]) [µg/mL] | half-life at 1 µM [8] [min] | MIC (Enterococcus faecium [9]) [µg/mL] | CLint scaled at 1 µM [10] [L/h/kg] | half-life at 1 µM [11] [min] | MIC (Staphylococcus aureus [12]) [µg/mL] | MIC (Enterococcus faecium [13]) [µg/mL] | other results
C=C[C@]1(C)C[C@@H](OC(=O)Cn2cc(-c3cncc(C(=O)Nc4ccc(OC)nc4)c3)nn2)[C@]2(C)[C@H](C)CC[C@]3(CCC(=O)[C@H]32)[C@@H](C)[C@@H]1O | Non-toxic | 0.5 (≈ 0.761 µM) | < 0.015 | Non-toxic | Non-toxic | 0.12 (≈ 0.183 µM) | 0.06 (≈ 0.0914 µM) | 0.03 (≈ 0.0457 µM) | 0.06 (≈ 0.0914 µM) | 566 | 0.06 (≈ 0.0914 µM) | 0.12 (≈ 0.183 µM) | 2.3 | 0.12 (≈ 0.183 µM) | 164 | 0.58 | 0.03 (≈ 0.0457 µM) | 0.12 (≈ 0.183 µM) | 
C=C[C@]1(C)C[C@@H](OC(=O)Cn2cc(-c3cccc(Nc4ncnc5[nH]cnc45)c3)nn2)[C@]2(C)[C@H](C)CC[C@]3(CCC(=O)[C@H]32)[C@@H](C)[C@@H]1O |  | 0.5 (≈ 0.783 µM) |  |  |  | 0.5 (≈ 0.783 µM) |  |  |  | 489 |  |  | 2 | 0.25 (≈ 0.391 µM) | 188 | 0.67 | 0.06 (≈ 0.0939 µM) | 0.25 (≈ 0.391 µM) | 
C=C[C@]1(C)C[C@@H](OC(=O)Cn2cc(-c3cncc(NC(=O)c4cnc(OC)cn4)c3)nn2)[C@]2(C)[C@H](C)CC[C@]3(CCC(=O)[C@H]32)[C@@H](C)[C@@H]1O | Non-toxic | 1 (≈ 1.52 µM) | 0.06 (≈ 0.0912 µM) | Non-toxic | Non-toxic | 0.12 (≈ 0.182 µM) | 0.06 (≈ 0.0912 µM) | 0.12 (≈ 0.182 µM) | 0.12 (≈ 0.182 µM) | > 600 | 0.12 (≈ 0.182 µM) | 0.12 (≈ 0.182 µM) | 5.7 | 0.06 (≈ 0.0912 µM) | 65.4 | 0.53 | 0.06 (≈ 0.0912 µM) | 0.06 (≈ 0.0912 µM) | 
C=C[C@]1(C)C[C@@H](OC(=O)CSC(C)(C)CNC(=O)[C@H](N)C(C)C)[C@]2(C)[C@H](C)CC[C@]3(CCC(=O)[C@H]32)[C@@H](C)[C@@H]1O [VALNEMULIN] |  | 0.06 (≈ 0.106 µM) | 0.03 (≈ 0.0531 µM) |  |  | 0.03 (≈ 0.0531 µM) | 0.06 (≈ 0.106 µM) | 0.06 (≈ 0.106 µM) | 0.25 (≈ 0.443 µM) | 212 | 0.12 (≈ 0.212 µM) | 0.12 (≈ 0.212 µM) | > 77.9 | 0.015 (≈ 0.0266 µM) | < 5.16 | 0.78 | 0.06 (≈ 0.106 µM) | 0.015 (≈ 0.0266 µM) | 
C=C[C@]1(C)C[C@@H](OC(=O)CS[C@@H]2C[C@H]3CC[C@@H](C2)N3C)[C@]2(C)[C@H](C)CC[C@]3(CCC(=O)[C@H]32)[C@@H](C)[C@@H]1O [RETAPAMULIN] |  | 0.06 (≈ 0.116 µM) | 0.12 (≈ 0.232 µM) |  |  | 0.12 (≈ 0.232 µM) | 0.12 (≈ 0.232 µM) | 0.25 (≈ 0.483 µM) | 0.5 (≈ 0.966 µM) | 123 | 0.25 (≈ 0.483 µM) | 0.06 (≈ 0.116 µM) | 2.4 | 0.03 (≈ 0.0579 µM) | 159 | 1.3 | 0.25 (≈ 0.483 µM) | 0.03 (≈ 0.0579 µM) | 
C=C[C@]1(C)C[C@@H](OC(=O)Cn2cc(-c3ccc(Cn4cnc5c(N)ncnc54)cc3)nn2)[C@]2(C)[C@H](C)CC[C@]3(CCC(=O)[C@H]32)[C@@H](C)[C@@H]1O |  |  | 0.03 (≈ 0.046 µM) |  |  |  | 0.03 (≈ 0.046 µM) | 0.06 (≈ 0.0919 µM) | 0.25 (≈ 0.383 µM) | > 600 | 0.06 (≈ 0.0919 µM) | 0.06 (≈ 0.0919 µM) |  |  |  | < 0.5 |  |  | 
C=C[C@]1(C)C[C@@H](OC(=O)Cn2cc(-c3cccc(Nc4cc(N)ncn4)c3)nn2)[C@]2(C)[C@H](C)CC[C@]3(CCC(=O)[C@H]32)[C@@H](C)[C@@H]1O | Non-toxic | 1 (≈ 1.63 µM) | 0.015 (≈ 0.0244 µM) | Non-toxic | Non-toxic | 0.5 (≈ 0.815 µM) | 0.06 (≈ 0.0978 µM) | 0.12 (≈ 0.196 µM) | 0.12 (≈ 0.196 µM) | 434 | 0.12 (≈ 0.196 µM) | 0.25 (≈ 0.407 µM) | 3.9 | 0.25 (≈ 0.407 µM) | 94.9 | 0.76 | 0.03 (≈ 0.0489 µM) | 0.25 (≈ 0.407 µM) | 
C=C[C@]1(C)C[C@@H](OC(=O)Cn2cc(-c3ccc(Cn4ccc5c(N)ncnc54)nc3)nn2)[C@]2(C)[C@H](C)CC[C@]3(CCC(=O)[C@H]32)[C@@H](C)[C@@H]1O | Non-toxic |  | 0.015 (≈ 0.023 µM) | Non-toxic | Non-toxic |  | < 0.015 | < 0.015 | 0.03 (≈ 0.046 µM) | 566 | < 0.015 | 0.06 (≈ 0.0919 µM) | 1.9 | 0.015 (≈ 0.023 µM) | 199 | 0.58 | 0.015 (≈ 0.023 µM) | 0.03 (≈ 0.046 µM) | Activity (Staphylococcus aureus [14]): 2.5 log10CFU/ml; Activity (Staphylococcus aureus [15]; time 5 day): 1.5 10^7CFU/ml; Activity (Staphylococcus aureus [16]): 5.4 10^5CFU/ml; Activity [17]: Non-toxic; Activity [18]: Non-toxic
CC(=O)O[C@H]1C[C@@]2(C)[C@@H](C[C@@H](O)[C@H]3[C@@]4(C)CC[C@@H](O)[C@@H](C)[C@@H]4CC[C@@]32C)/C1=C(\CCC=C(C)C)C(=O)O [FUSIDIC ACID] |  |  | 0.015 (≈ 0.029 µM) |  |  |  |  |  |  |  |  | 0.12 (≈ 0.232 µM) |  |  |  |  | 0.25 (≈ 0.484 µM) |  | Activity (Staphylococcus aureus [14]): 2.5 log10CFU/ml; Activity (Staphylococcus aureus [15]; time 5.0 day): Active; Activity (Staphylococcus aureus [16]): 4.8 10^4CFU/ml

— ChEMBL document CHEMBL6134887, “Linker and Head-Group Exploration of Anti-MRSA Triaromatic Pleuromutilins” (J Med Chem, 2025)
